Reference: patent US8835481B2, “1-benzyl-3-hydroxymethylindazole derivatives and use thereof in the treatment of diseases based on the expression of MCP-1, CX3CR1 and P40” (Aziende Chimiche Riunite Angelini Francesco A.C.R.A.F. …, priority 2008, dated 2014)

Tests used:
[1] = system: MCP-1 protein production by LPS-stimulated MonoMac6 cells; experiment: Measurement of the production of MCP-1 in a human monocyte line (ELISA); assay type: cell-based; conditions: 1 h pre-incubation, LPS 100 ng/ml 20 h, MonoMac6 supernatant; for inhibition at 300 µM: MONO-MAC-6, compound 300 μM (maximum soluble concentration); for inhibition at 30 µM: MONO-MAC-6, compound 30 μM (maximum soluble concentration); for inhibition at 150 µM: MONO-MAC-6, compound 150 μM (maximum soluble concentration)
Experimental: (§1) The capacity of the compounds to inhibit the expression of the protein MCP-1 by lipopolysaccharide (LPS)-stimulated MonoMac6 cells was evaluated. The cells were placed in 96-well plates at a concentration of 50 000 cells/well. The compounds were tested at the maximum soluble concentration given in Table 2 (in the range 30-300 μM) and incubated for 1 hour. The cells were then stimulated with LPS (100 ng/ml) for 20 hours.
The amount of MCP-1 produced was measured in the supernatants, suitably diluted with buffer, by means of an immunoenzymatic test (ELISA) using a commercial kit (ELISA MCP-1/JE, R&D Systems).

[2] = system: p40 expression by LPS-stimulated MonoMac6 cells; experiment: Analysis of the gene expression of p40 in a human monocyte line (real-time RT-PCR); assay type: cell-based; conditions: 1 h pre-incubation, LPS 100 ng/ml 4 h, read-out: % inhibition of p40 expression (mRNA); for inhibition at 300 µM: MONO-MAC-6, compound 300 μM (maximum soluble concentration)
Experimental: as §1, with “p40” for “the protein MCP-1”, “4” for “2”, “4” for “20”
(§2) The total RNA was extracted from the cell pellet using the RNeasy mini kit (Qiagen), reverse-transcribed with the TaqMan Reverse transcription reagents synthesis kit (Applied Biosystems) and the cDNA obtained was used for the real-time PCR reaction. The amplification was obtained in 96-well plates using the ABI Prism 7000 sequence detection system (Applied Biosystems), by applying the following temperature profile: 50° C. for 2 minutes, 95° C. for 10 minutes and 45 cycles at 95° C. for 15 seconds and 60° C. for 1 minute. […] A set of primers and probe for β-actin was used in separate wells as an internal control of the samples for the purposes of normalization. Once the reaction had taken place, the fluorescence data were analysed using the ABI Prism 7000 SDS software, by calculating the threshold cycle (Ct) for each sample and subsequently performing a relative quantification via the ΔΔCt method.

[3] = system: CX3CR1 expression by LPS-stimulated MonoMac6 cells; experiment: Analysis of the gene expression of CX3CR1 in a human monocyte line (real-time RT-PCR); assay type: cell-based; conditions: 1 h pre-incubation, LPS 100 ng/ml 20 h, read-out: % inhibition of CX3CR1 expression (mRNA); for inhibition at 300 µM: MONO-MAC-6, compound 300 μM (maximum soluble concentration); for inhibition at 150 µM: MONO-MAC-6, compound 150 μM (maximum soluble concentration)
Experimental: The capacity of the compounds to inhibit the expression of CX3CR1 by lipopolysaccharide (LPS)-stimulated MonoMac6 cells was evaluated. The cells were placed in 96-well plates at a concentration of 50 000 cells/well. […] The cells were then stimulated with LPS (100 ng/ml) for 20 hours.
as §2

[4] = system: MCP-1 expression by LPS-stimulated MonoMac6 cells; experiment: Analysis of the gene expression of MCP-1 in a human monocyte line (real-time RT-PCR); assay type: cell-based; conditions: 1 h pre-incubation, LPS 100 ng/ml 4 h
Experimental: as §1, with “of” for “of the protein”, “1” for “2”, “4” for “20”
The total RNA was extracted from the cell pellet using the RNeasy mini kit (Qiagen), reverse-transcribed with the TaqMan Reverse transcription reagents synthesis kit (Applied Biosystems) and the cDNA obtained was used for the real-time PCR reaction. The amplification was obtained in 96-well plates using the ABI Prism 7000 sequence detection system (Applied Biosystems), by applying the following temperature profile: 50° C. for 2 minutes, 95° C. for 10 minutes and 45 cycles at 95° C. for 15 seconds and 60° C. for 1 minute. For the amplification, a set of primers and probe specific for human MCP-1 was used (Applied Biosystems, RefSeq NM_002982.3). A set of primers and probe for β-actin was used in separate wells as an internal control of the samples for the purposes of normalization. Once the reaction had taken place, the fluorescence data were analysed using the ABI Prism 7000 SDS software, by calculating the threshold cycle (Ct) for each sample and subsequently performing a relative quantification via the ΔΔCt method.

[5] = compound 300 μM (maximum soluble concentration)
[6] = MONO-MAC-6, compound 30 μM (maximum soluble concentration)
[7] = compound 150 μM (maximum soluble concentration)

Row | Structure (SMILES) | inhibition at 300 µM [1] [%] | inhibition at 300 µM [2] [%] | inhibition at 300 µM [3] [%] | % inhibition of MCP-1 expression (mRNA) [4, 5] [%] | melting point [°C] | inhibition at 150 µM [1] [%] | further results
1 | O=C(O)COCc1nn(Cc2ccc(F)cc2)c2ccccc12 [Compound 17, {[1-(4-fluorobenzyl)-1H-indazol-3-yl]methoxy}acetic acid] | 39 | 61 | 90 | 26 | – | – | –
2 | COc1ccc2c(c1)c(COC(C)(C)C(=O)O)nn2Cc1ccccc1 [Compound 2, 2-[(1-benzyl-5-methoxy-1H-indazol-3-yl)methoxy]-2-methylpropanoic acid] | 66 | – | – | – | 128 to 130 | – | –
3 | O=C(O)COCc1nn(Cc2ccc(Cl)cc2Cl)c2ccccc12 [Compound 18, {[1-(2,4-dichlorobenzyl)-1H-indazol-3-yl]methoxy}acetic acid] | – | – | – | – | – | – | inhibition at 30 µM [1]: 35%
4 | CC(C)(OCCOCc1nn(Cc2ccccc2)c2ccccc12)C(=O)O [Compound 20, 2-{2-[(1-benzyl-1H-indazol-3-yl)methoxy]ethoxy}-2-methylpropanoic acid] | 73 | 58 | 89 | 29 | 94 to 95 | – | –
5 | CC(C)(OCc1nn(Cc2ccc(Cl)c(Cl)c2)c2ccccc12)C(=O)O [Compound 7, 2-{[1-(3,4-dichlorobenzyl)-1H-indazol-3-yl]methoxy}-2-methylpropanoic acid] | – | – | – | – | – | – | inhibition at 30 µM [1]: 29%; inhibition at 30 µM [2, 6]: 47%; inhibition at 30 µM [3, 6]: 85%
6 | COc1ccc(Cn2nc(COC(C)(C)C(=O)O)c3ccccc32)cc1 [Compound 1, 2-{[1-(4-methoxybenzyl)-1H-indazol-3-yl]methoxy}-2-methylpropanoic acid] | 80 | 50 | 97 | 57 | 169 to 171 | – | –
7 | O=C(O)COCCOCc1nn(Cc2ccccc2)c2ccccc12 [Compound 19, {2-[(1-benzyl-1H-indazol-3-yl)methoxy]ethoxy}acetic acid] | 63 | – | – | – | – | – | –
8 | CC(C)(OCc1nn(Cc2ccccc2)c2ccc(Br)cc12)C(=O)O [Compound 23, 2-[(1-benzyl-5-bromo-1H-indazol-3-yl)methoxy]-2-methylpropanoic acid] | – | – | – | – | 168 to 170 | – | –
9 | CC(C)(OCc1nn(C2CCCc3ccccc32)c2ccccc12)C(=O)O (centres unmarked) [Compound 8, 2-methyl-2-{[1-(1,2,3,4-tetrahydronaphth-1-yl)-1H-indazol-3-yl]methoxy}-propanoic acid] | – | – | – | – | – | 77 | –
10 | CC(C)(OCc1nn(Cc2ccc(Cl)cc2)c2ccccc12)C(=O)O [Compound 4, 2-{[1-(4-chlorobenzyl)-1H-indazol-3-yl]methoxy}-2-methylpropanoic acid] | – | – | – | – | – | 54 | inhibition at 150 µM ([2]; MONO-MAC-6, compound 150 μM (maximum soluble concentration)): 48%; inhibition at 150 µM [3]: 87%; % inhibition of MCP-1 expression (mRNA) [4, 7]: 26%
11 | CC(C)(OCc1nn(Cc2ccccc2)c2ccc([N+](=O)[O-])cc12)C(=O)O [Compound 6, 2-[(1-benzyl-5-nitro-1H-indazol-3-yl)methoxy]-2-methylpropanoic acid] | – | – | – | – | – | 100 | inhibition at 150 µM [3]: 98%; % inhibition of MCP-1 expression (mRNA) [4, 7]: 95%
12 | Cc1ccc(Cn2nc(COC(C)(C)C(=O)O)c3ccccc32)cc1 [Compound 22, 2-{[1-(4-methylbenzyl)-1H-indazol-3-yl]methoxy}-2-methylpropanoic acid] | – | – | – | – | – | 37 | –
13 | CC(C)(OCc1nn(Cc2ccccc2)c2ccc(Cl)cc12)C(=O)O [Compound 5, 2-[(1-benzyl-5-chloro-1H-indazol-3-yl)methoxy]-2-methylpropanoic acid] | – | – | – | – | 145 to 147 | 82 | –
14 | CC(C)(OCc1nn(C(=O)c2ccccc2)c2ccccc12)C(=O)O [Compound 3, 2-[(1-benzoyl-1H-indazol-3-yl)methoxy]-2-methylpropanoic acid] | 83 | 64 | 99 | 65 | – | – | –
15 | CC(C)(OCCCOCc1nn(Cc2ccccc2)c2ccccc12)C(=O)O [Compound 21, 2-{3-[(1-benzyl-1H-indazol-3-yl)methoxy]propoxy}-2-methylpropanoic acid] | 88 | 50 | 97 | 61 | – | – | –
